Measured values from patent US20040006070A1, “Intraspinal continuous infusion of midazolam hydrochloride for the treatment of pain” (priority 2002, published 2004).
Counter-ions that a name gives are not always drawn.

Assay: Bloodwork: complete blood count, electrolytes, extended blood chemistry
Assay type: in vivo, sheep
Procedure: Indirect blood pressure, pulse recording, pain testing (mechanical stimulus device, cold and warm water baths see description in procedure) and weight were taken on days 1, 3, 7, 15, 22, 29, 36, and 43. Venous blood samples (15 ml drawn from the jugular vein with Vacutainer brand blood collection tubes) for complete blood count, electrolytes, and extended blood chemistry were drawn on days 1, 15, and 43 (mild procedure only light hand restraint necessary).

[1] = Double Blinded Sheep, Chemistries, Day 15
[2] = Double Blinded Sheep, Chemistries, Day 43
[3] = sheep #84 Roadrunner, 15 mg/day, Baseline
[4] = sheep #84 Roadrunner, 15 mg/day, Day 1

Cc1ncc2n1-c1ccc(Cl)cc1C(c1ccccc1F)=NC2 [Midazolam, midazolam hydrochloride]
ALT [1]: 10 U/L
AST [1]: 72 U/L
CPK [1]: 100 U/L
Cholesterol [1]: 74 mg/dL
Total Bili (Double Blinded Sheep, Chemistries, Day 15, reference range 0.14-0.32): 0.1 mg/dL
Creatinine (Double Blinded Sheep, Chemistries, Day 15, reference range 1-2.7): 1.1 mg/dL
Albumin (Double Blinded Sheep, Chemistries, Day 15, reference range 2.4-3): 3.6 g/dL
K+ (Double Blinded Sheep, Chemistries, Day 15, reference range 3.9-5.4): 4.8 mEq/l
Phos (Double Blinded Sheep, Chemistries, Day 15, reference range 5-7.3): 6.4 mg/dL
Total Prot (Double Blinded Sheep, Chemistries, Day 15, reference range 6-7.9): 7.1 g/dL
BUN (Double Blinded Sheep, Chemistries, Day 15, reference range 8-20): 25 mg/dL
Gamma GT (Double Blinded Sheep, Chemistries, Day 15, reference range 25-59): 87 U/L
Glucose (Double Blinded Sheep, Chemistries, Day 15, reference range 42-76): 82 mg/dL
Alk Phos (Double Blinded Sheep, Chemistries, Day 15, reference range 68-387): 154 U/L
Na+ (Double Blinded Sheep, Chemistries, Day 15, reference range 139-152): 146 mEq/l
ALT [2]: 15 U/L
AST [2]: 78 U/L
CPK [2]: 96 U/L
Cholesterol [2]: 80 mg/dL
Total Bili (Double Blinded Sheep, Chemistries, Day 43, reference range 0.14-0.32): 0.1 mg/dL
Creatinine (Double Blinded Sheep, Chemistries, Day 43, reference range 1-2.7): 1.0 mg/dL
Albumin (Double Blinded Sheep, Chemistries, Day 43, reference range 2.4-3): 3.6 g/dL
K+ (Double Blinded Sheep, Chemistries, Day 43, reference range 3.9-5.4): 5.7 mEq/l
Phos (Double Blinded Sheep, Chemistries, Day 43, reference range 5-7.3): 6.9 mg/dL
Total Prot (Double Blinded Sheep, Chemistries, Day 43, reference range 6-7.9): 6.9 g/dL
BUN (Double Blinded Sheep, Chemistries, Day 43, reference range 8-20): 26 mg/dL
Gamma GT (Double Blinded Sheep, Chemistries, Day 43, reference range 25-59): 73 U/L
Glucose (Double Blinded Sheep, Chemistries, Day 43, reference range 42-76): 70 mg/dL
Alk Phos (Double Blinded Sheep, Chemistries, Day 43, reference range 68-387): 179 U/L
Na+ (Double Blinded Sheep, Chemistries, Day 43, reference range 139-152): 146 mEq/l
ALT (sheep #83, 15 mg/day, Day 1): 0 U/L
AST (sheep #83, 15 mg/day, Day 1): 102 U/L
Alk Phos (sheep #83, 15 mg/day, Day 1): 48 U/L
BUN (sheep #83, 15 mg/day, Day 1): 8 mg/dL
CPK (sheep #83, 15 mg/day, Day 1): 65 U/L
Cholesterol (sheep #83, 15 mg/day, Day 1): 47 mg/dL
Differential Count: Eosin (sheep #83, 15 mg/day, Day 1): 1%
Differential Count: Lymph (sheep #83, 15 mg/day, Day 1): 55%
Differential Count: Mono (sheep #83, 15 mg/day, Day 1): 5%
Differential Count: Seg (sheep #83, 15 mg/day, Day 1): 39%
Gamma GT (sheep #83, 15 mg/day, Day 1): 62 U/L
Glucose (sheep #83, 15 mg/day, Day 1): 78 mg/dL
Hct (sheep #83, 15 mg/day, Day 1): 37.2%
Hgb (sheep #83, 15 mg/day, Day 1): 12.7 g/dL
MCH (sheep #83, 15 mg/day, Day 1): 11.3 pg
MCHC (sheep #83, 15 mg/day, Day 1): 34.0 g/dL
MCV (sheep #83, 15 mg/day, Day 1): 33.2 fL
Na+ (sheep #83, 15 mg/day, Day 1): 148 mEq/l
Platlet Count (sheep #83, 15 mg/day, Day 1): 879000 µL⁻¹
RBC (sheep #83, 15 mg/day, Day 1): 1.12e+07 µL⁻¹
WBC (sheep #83, 15 mg/day, Day 1): 5320 µL⁻¹
Total Bili (sheep #83, 15 mg/day, Day 1, ref 0.14-0.32): 0.1 mg/dL
Creatinine (sheep #83, 15 mg/day, Day 1, ref 1-2.7): 1.4 mg/dL
Albumin (sheep #83, 15 mg/day, Day 1, ref 2.4-3): 3.3 g/dL
K+ (sheep #83, 15 mg/day, Day 1, ref 3.9-5.4): 4.2 mEq/l
Phos (sheep #83, 15 mg/day, Day 1, ref 5-7.3): 7.1 mg/dL
Total Prot (sheep #83, 15 mg/day, Day 1, ref 6-7.9): 6.1 g/dL
ALT (sheep #83, 15 mg/day, Day 15): 8 U/L
AST (sheep #83, 15 mg/day, Day 15): 52 U/L
Alk Phos (sheep #83, 15 mg/day, Day 15): 90 U/L
BUN (sheep #83, 15 mg/day, Day 15): 90 mg/dL
CPK (sheep #83, 15 mg/day, Day 15): 107 U/L
Cholesterol (sheep #83, 15 mg/day, Day 15): 65 mg/dL
Differential Count: Eosin (sheep #83, 15 mg/day, Day 15): 1%
Differential Count: Lymph (sheep #83, 15 mg/day, Day 15): 68%
Differential Count: Mono (sheep #83, 15 mg/day, Day 15): 2%
Differential Count: Seg (sheep #83, 15 mg/day, Day 15): 29%
Gamma GT (sheep #83, 15 mg/day, Day 15): 72 U/L
Glucose (sheep #83, 15 mg/day, Day 15): 66 mg/dL
Hct (sheep #83, 15 mg/day, Day 15): 33.2%
Hgb (sheep #83, 15 mg/day, Day 15): 11.5 g/dL
MCH (sheep #83, 15 mg/day, Day 15): 11.4 pg
MCHC (sheep #83, 15 mg/day, Day 15): 34.7 g/dL
MCV (sheep #83, 15 mg/day, Day 15): 33.0 fL
Na+ (sheep #83, 15 mg/day, Day 15): 147 mEq/l
Platlet Count (sheep #83, 15 mg/day, Day 15): 296000 µL⁻¹
RBC (sheep #83, 15 mg/day, Day 15): 1e+07 µL⁻¹
WBC (sheep #83, 15 mg/day, Day 15): 4390 µL⁻¹
Total Bili (sheep #83, 15 mg/day, Day 15, ref 0.14-0.32): 0.1 mg/dL
Creatinine (sheep #83, 15 mg/day, Day 15, ref 1-2.7): 1.2 mg/dL
Albumin (sheep #83, 15 mg/day, Day 15, ref 2.4-3): 3.3 g/dL
K+ (sheep #83, 15 mg/day, Day 15, ref 3.9-5.4): 4.5 mEq/l
Phos (sheep #83, 15 mg/day, Day 15, ref 5-7.3): 5.1 mg/dL
Total Prot (sheep #83, 15 mg/day, Day 15, ref 6-7.9): 5.9 g/dL
ALT (sheep #83, 15 mg/day, Day 43): 6 U/L
AST (sheep #83, 15 mg/day, Day 43): 53 U/L
Alk Phos (sheep #83, 15 mg/day, Day 43): 96 U/L
BUN (sheep #83, 15 mg/day, Day 43): 14 mg/dL
CPK (sheep #83, 15 mg/day, Day 43): 49 U/L
Cholesterol (sheep #83, 15 mg/day, Day 43): 52 mg/dL
Differential Count: Atyp lym (sheep #83, 15 mg/day, Day 43): 2%
Differential Count: Eosin (sheep #83, 15 mg/day, Day 43): 3%
Differential Count: Lymph (sheep #83, 15 mg/day, Day 43): 70%
Differential Count: Mono (sheep #83, 15 mg/day, Day 43): 3%
Differential Count: Seg (sheep #83, 15 mg/day, Day 43): 22%
Gamma GT (sheep #83, 15 mg/day, Day 43): 54 U/L
Glucose (sheep #83, 15 mg/day, Day 43): 83 mg/dL
Hct (sheep #83, 15 mg/day, Day 43): 34.9%
Hgb (sheep #83, 15 mg/day, Day 43): 11.9 g/dL
MCH (sheep #83, 15 mg/day, Day 43): 11.1 pg
MCHC (sheep #83, 15 mg/day, Day 43): 31.1 g/dL
MCV (sheep #83, 15 mg/day, Day 43): 32.5 fL
Na+ (sheep #83, 15 mg/day, Day 43): 149 mEq/l
Platlet Count (sheep #83, 15 mg/day, Day 43): 576000 µL⁻¹
RBC (sheep #83, 15 mg/day, Day 43): 1.07e+07 µL⁻¹
WBC (sheep #83, 15 mg/day, Day 43): 4770 µL⁻¹
Total Bili (sheep #83, 15 mg/day, Day 43, ref 0.14-0.32): 0.1 mg/dL
Creatinine (sheep #83, 15 mg/day, Day 43, ref 1-2.7): 1.3 mg/dL
Albumin (sheep #83, 15 mg/day, Day 43, ref 2.4-3): 3.6 g/dL
K+ (sheep #83, 15 mg/day, Day 43, ref 3.9-5.4): 4.9 mEq/l
Phos (sheep #83, 15 mg/day, Day 43, ref 5-7.3): 6.2 mg/dL
Total Prot (sheep #83, 15 mg/day, Day 43, ref 6-7.9): 6.6 g/dL
Differential Count: Eosin [3]: 5%
Differential Count: Lymph [3]: 62%
Differential Count: Mono [3]: 1%
Differential Count: Seg [3]: 32%
Hct [3]: 41.9%
Hgb [3]: 15.0 g/dL
MCH [3]: 10.7 pg
MCHC [3]: 35.7 g/dL
MCV [3]: 30.0 fL
Platlet Count [3]: 721000 µL⁻¹
RBC [3]: 1.4e+07 µL⁻¹
WBC [3]: 5790 µL⁻¹
ALT [4]: 9 U/L
AST [4]: 100 U/L
Albumin [4]: 3.3 g/dL
Alk Phos [4]: 93 U/L
BUN [4]: 7 mg/dL
CPK [4]: 90 U/L
Cholesterol [4]: 45 mg/dL
Creatinine [4]: 1.2 mg/dL
Differential Count: Eosin [4]: 8%
Differential Count: Lymph [4]: 43%
Differential Count: Mono [4]: 3%
Differential Count: Seg [4]: 46%
Gamma GT [4]: 51 U/L
Glucose [4]: 69 mg/dL
Hct [4]: 35.7%
Hgb [4]: 12.9 g/dL
K+ [4]: 4.8 mEq/l
MCH [4]: 11.0 pg
MCHC [4]: 36.1 g/dL
MCV [4]: 30.4 fL
Na+ [4]: 148 mEq/l
Phos [4]: 6.2 mg/dL
Platlet Count [4]: 962000 µL⁻¹
RBC [4]: 1.17e+07 µL⁻¹
